Reference: patent US9850247B2 (Almac Discovery Limited, priority 2013, dated 2017)

Columns and labels:
Wee-1 kinase = target: T1, Wee-1 kinase (Homo sapiens, UniProt P30291); experiment: Measurement of Wee-1 kinase activity (ADP-Glo luminescent kit); format: biochemical
T1 construct: purchased Invitrogen PV3817
Summary of the method: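 Activated Wee-1 was pre-incubated 30 min at RT with compound in 40 mM Tris-HCl, 20 mM MgCl2, 0.1 mg/mL BSA and 2 mM DTT. The reaction was started with an aliquot of 2.0 μg/mL poly(Lys,Tyr 4:1) plus 30 μM ATP and run 1 h at RT. ADP-Glo luminescence gave IC50 by non-linear fit.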

[1] = target: T2, human ether a go-go related gene (hERG) K′ channel (Homo sapiens, UniProt Q12809); experiment: hERG activity, IonWorks patch clamp electrophysiology (Method 6); format: cell-based
T2 construct: Essen BioScience
Protocol: Method 6: Determination of hERG Activity
Compounds were tested for inhibition of the human ether a go-go related gene (hERG) K′ channel using IonWorks patch clamp electrophysiology at Essen BioScience. 8-Point concentration-response curves of the effect of compound on hERG current as a percentage of pre-compound signal were generated using 3-fold serial dilutions from 11 μM and results are reported as IC50 in μM.

[2] = tested on: phospho-cdc2 (Tyr15) in HT-29 cells; experiment: Effect on phosphorylation of cdc2 at Tyr15, PathScan ELISA (Method 2); format: cell-based; conditions: Homo sapiens, 8 h, eight hours incubation, read-out: HT29 pCDC2 method 2
Protocol: Method 2: Determining the Effect of Compounds on the phosphorylation of cdc2 at Tyr15
The colorectal cancer cell lines HT-29 and HCT-116 were purchased from the ATCC and routinely maintained in McCoy's Medium (Invitrogen) supplemented with 10% Foetal Calf Serum.
The cells were trypsinised from their growing vessel and counted, 100 μL of cell suspension containing 6000 cells was pipetted into black 96 well Co-star plates and incubated overnight to allow adherence to the surface at a temperature of 37° C. and an atmosphere of 5% CO2. Test compounds were formulated in DMSO and diluted in foetal calf serum supplemented medium. Incubating medium was removed by aspiration and diluted drug supplemented medium added to each well.
The plate was returned to the incubator for an additional eight hours at 37° C. and an atmosphere of 5% CO2. Post incubation, the drug supplemented medium was aspirated from each well and the cells were washed once in ice-cold phosphate buffered saline (PBS). 100 μL of cell lysis buffer (Cell Signalling Technologies #9803) containing 20 mM Tris, 150 mM NaCl, 1 mM EDTA, 1 mM EGTA, 1% Triton-X100, 2.5 mM sodium pyrophosphate, 1 mM glycerophosphate, 1 mM Na3VO4 and 1 μg/mL leupeptin was added to each well of the 96 well plate and incubated at 4° C. for 30 min. The samples on the plate were snap frozen at −80° C. until required. Immediately before the continuation of the assay, the sample plate was thawed and centrifuged at 4° C. for 10 min and the supernatant transferred to secondary tubes or 96 well plate.
Cell supernatant was mixed in a ratio of 1:1 with sample dilutent buffer and vortexed for one minute. 100 μL of diluted sample was pipetted into pre-coated plates containing a rabbit polyclonal antibody for phospho-cdc2 (Tyr15) (Cell Signalling Technologies PathScan kit #7176). The plate was sealed and incubated overnight at 4° C.
The plate seal was removed and the well contents aspirated, followed by 3×5 min washes with 200 μL of diluted wash buffer. Between each wash the plate was tapped firmly onto blotting paper to ensure the removal of all kit solution. 100 μL of kit detection antibody was added to each well and the plate re-sealed and incubated at 37° C. for 1 h. Post incubation the plate was washed and processed in a similar manner to that previously described.
100 μL of horseradish peroxidise-linked secondary antibody was added to each test well, the plate sealed and incubated for thirty minutes at 37° C. Post incubation, the plate was washed as previously stated, followed by the addition of 100 μL of 3,3′,5,5′ tetramethylbenzidine (TMB reagent). The plate was sealed and incubated at RT for 30 min.
100 μL of stop solution was added to each well and the underside of the plate wiped with a lint-free tissue, prior to spectrophotometric determination. Absorbance from each well was read at 450 nm within 30 min of the addition of the stop solution.
The percentage of phospho-cdc2 was calculated compared to DMSO control and plotted versus the concentration of inhibitor using GraphPad Prism. Data was fitted using non-linear regression analysis and IC50 values generated.

T2 sequence (Q12809 whole entry): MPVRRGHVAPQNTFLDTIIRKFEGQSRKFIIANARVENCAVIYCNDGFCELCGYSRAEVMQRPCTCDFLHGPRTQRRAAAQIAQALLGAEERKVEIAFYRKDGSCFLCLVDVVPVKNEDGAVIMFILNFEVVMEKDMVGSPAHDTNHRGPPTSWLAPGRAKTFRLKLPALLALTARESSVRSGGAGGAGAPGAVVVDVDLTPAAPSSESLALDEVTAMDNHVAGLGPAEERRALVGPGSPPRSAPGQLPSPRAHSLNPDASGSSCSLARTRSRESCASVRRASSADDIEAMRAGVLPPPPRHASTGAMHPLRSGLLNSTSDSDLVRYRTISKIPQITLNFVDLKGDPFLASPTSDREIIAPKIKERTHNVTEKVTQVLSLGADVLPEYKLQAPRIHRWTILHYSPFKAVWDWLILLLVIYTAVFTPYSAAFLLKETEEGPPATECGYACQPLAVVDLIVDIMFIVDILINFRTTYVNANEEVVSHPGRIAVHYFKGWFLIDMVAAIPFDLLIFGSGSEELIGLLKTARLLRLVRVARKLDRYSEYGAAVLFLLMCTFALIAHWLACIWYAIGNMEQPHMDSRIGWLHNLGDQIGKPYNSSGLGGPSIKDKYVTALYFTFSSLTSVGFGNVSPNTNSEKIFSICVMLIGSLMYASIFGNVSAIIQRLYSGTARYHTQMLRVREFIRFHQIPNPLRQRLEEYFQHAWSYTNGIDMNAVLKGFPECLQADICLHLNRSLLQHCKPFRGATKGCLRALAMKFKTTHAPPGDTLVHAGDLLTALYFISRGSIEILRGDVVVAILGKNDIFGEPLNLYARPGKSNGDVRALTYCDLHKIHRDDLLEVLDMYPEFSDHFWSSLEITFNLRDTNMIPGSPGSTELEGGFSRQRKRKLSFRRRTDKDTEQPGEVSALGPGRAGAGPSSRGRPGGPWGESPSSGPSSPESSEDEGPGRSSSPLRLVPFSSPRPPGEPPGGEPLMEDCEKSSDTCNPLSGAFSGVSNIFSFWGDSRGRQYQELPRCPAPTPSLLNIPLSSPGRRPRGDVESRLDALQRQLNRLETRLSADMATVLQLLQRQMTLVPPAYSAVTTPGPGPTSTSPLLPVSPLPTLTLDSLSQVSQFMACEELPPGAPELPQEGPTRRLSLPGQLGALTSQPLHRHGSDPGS
T1 sequence (P30291 whole entry): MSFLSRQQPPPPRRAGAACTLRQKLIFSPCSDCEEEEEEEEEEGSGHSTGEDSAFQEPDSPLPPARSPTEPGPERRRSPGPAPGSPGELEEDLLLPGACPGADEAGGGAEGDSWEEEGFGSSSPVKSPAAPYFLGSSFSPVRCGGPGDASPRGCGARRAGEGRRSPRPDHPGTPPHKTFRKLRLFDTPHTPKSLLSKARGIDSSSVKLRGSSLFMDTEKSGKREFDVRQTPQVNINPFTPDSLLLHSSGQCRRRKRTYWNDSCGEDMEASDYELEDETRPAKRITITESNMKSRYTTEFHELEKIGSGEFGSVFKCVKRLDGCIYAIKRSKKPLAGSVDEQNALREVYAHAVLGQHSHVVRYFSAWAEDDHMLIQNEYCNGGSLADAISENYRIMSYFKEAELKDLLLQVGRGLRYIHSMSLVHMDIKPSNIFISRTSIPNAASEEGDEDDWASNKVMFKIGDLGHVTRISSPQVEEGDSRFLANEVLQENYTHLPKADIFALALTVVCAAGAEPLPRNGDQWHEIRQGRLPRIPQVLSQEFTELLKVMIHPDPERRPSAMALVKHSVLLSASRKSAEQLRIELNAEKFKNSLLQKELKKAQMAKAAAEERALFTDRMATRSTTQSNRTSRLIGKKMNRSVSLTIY

IC50 (Wee-1 kinase)	IC50 [2]	SMILES	IC50 [1]	hERG inhibition compared with prior art analogues ([1]; versus analogues from WO2013126656, WO2013013031 and WO2013059485)
≤ 10 nM	100 to 1000 nM	CN1CN(c2c(Cl)cccc2Cl)C(=O)c2cnc(Nc3ccc(N4CCNCC4)cc3)nc21 [Example 1, 3-(2,6-Dichlorophenyl)-1-methyl-7-((4-(piperazin-1-yl)phenyl)amino)-2,3-dihydropyrimido[4,5-d]pyrimidin-4(1H)-one]	> 10000 nM	–
≤ 10 nM	100 to 1000 nM	CNCc1cc(Nc2ncc3c(n2)N(C)CN(c2c(Cl)cccc2Cl)C3=O)ccc1N1CCOCC1 [Example 5, 3-(2,6-Dichlorophenyl)-1-methyl-7-((3-((methylamino)methyl)-4-morpholinophenyl)amino)-2,3-dihydropyrimido[4,5-d]pyrimidin-4(1H)-one]	–	lower hERG inhibition
≤ 10 nM	≤ 100 nM	Cc1cc(Nc2ncc3c(n2)N(C)CN(c2c(Cl)cccc2Cl)C3=O)ccc1N1CCNCC1 [Example 6, 3-(2,6-Dichlorophenyl)-1-methyl-7-((3-methyl-4-(piperazin-1-yl)phenyl)amino)-2,3-dihydropyrimido[4,5-d]pyrimidin-4(1H)-one]	> 10000 nM	–
≤ 10 nM	≤ 100 nM	C[C@@H]1CN(c2ccc(Nc3ncc4c(n3)N(C)CN(c3c(Cl)cccc3Cl)C4=O)cc2)CCN1 [Example 16, (R)-3-(2,6-Dichlorophenyl)-1-methyl-7-((4-(3-methylpiperazin-1-yl)phenyl)amino)-2,3-dihydropyrimido[4,5-d]pyrimidin-4(1H)-one]	> 10000 nM	–
